Assay results taken from publication PMC5760531, “Action Potential Recording and Pro-arrhythmia Risk Analysis in Human Ventricular Trabeculae” (Frontiers in Physiology, 2018).

Tested on: human ventricular trabeculae
Experiment: Action potential recording and pro-arrhythmic score analysis in human ventricular trabeculae (hVT);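 note: sharp microelectrode action potential recordings at 37°C in Tyrode-perfused trabeculae, 4 cumulative concentrations each applied 31 min, values averaged over last 30 APs, vehicle 0.1% DMSO as control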
Conditions: for EADs (raw data) / Refractoriness Escape (raw data) / Beat Escape (raw data): n=4 trabeculae
[1] = 2Hz, 0.7-FOLD free ETPC (4.1µM)

## Cc1cccc(C)c1OCC(C)N (stereo not shown) [MEXILETINE, Mexiletine]
1Hz, 73-FOLD free ETPC (4.1µM)
  EADs (raw data): 0
  Refractoriness Escape (raw data): 0
[1]
  AMAX (average raw data): 105
  AMAX percentage change compared to vehicle control: -2%
  APD30 (average raw data): 126
  APD30 percentage change compared to vehicle control: -7%
  APD50 (average raw data): 172
  APD50 percentage change compared to vehicle control: -4%
  APD90 (average raw data): 257
  APD90 percentage change compared to vehicle control: -1%
  Alternans (average raw data): 2.02
  Alternans percentage change compared to vehicle control: 59%
  Beat Escape percentage change compared to vehicle control: 50%
  EADs percentage change compared to vehicle control: 0%
  ERP (average raw data): 0.45
  ERP percentage change compared to vehicle control: 5%
  Max Dispersion (average raw data): 6.13
  Max Dispersion percentage change compared to vehicle control: -14%
  RMP (average raw data): -88
  RMP percentage change compared to vehicle control: 0%
  Refractoriness Escape percentage change compared to vehicle control: 0%
  STV (average raw data): 1.38
  STV percentage change compared to vehicle control: 81%
  Triangulation (average raw data): 131
  Triangulation percentage change compared to vehicle control: 5%
  Beat Escape (raw data): 2
  EADs (raw data): 0
  Refractoriness Escape (raw data): 0
2Hz, 7-FOLD free ETPC (4.1µM)
  AMAX (average raw data): 99
  AMAX percentage change compared to vehicle control: -8%
  APD30 (average raw data): 128
  APD30 percentage change compared to vehicle control: -6%
  APD50 (average raw data): 167
  APD50 percentage change compared to vehicle control: -8%
  APD90 (average raw data): 255
  APD90 percentage change compared to vehicle control: -2%
  Alternans (average raw data): 1.03
  Alternans percentage change compared to vehicle control: -19%
  Beat Escape percentage change compared to vehicle control: 75%
  EADs percentage change compared to vehicle control: 0%
  ERP (average raw data): 0.39
  ERP percentage change compared to vehicle control: -9%
  Max Dispersion (average raw data): 4.70
  Max Dispersion percentage change compared to vehicle control: -34%
  RMP (average raw data): -89
  RMP percentage change compared to vehicle control: 1%
  Refractoriness Escape percentage change compared to vehicle control: 0%
  STV (average raw data): 0.76
  STV percentage change compared to vehicle control: 3%
  Triangulation (average raw data): 127
  Triangulation percentage change compared to vehicle control: 2%
  Beat Escape (raw data): 3
  EADs (raw data): 0
  Refractoriness Escape (raw data): 0
2Hz, 24-FOLD free ETPC (4.1µM)
  AMAX (average raw data): 90
  AMAX percentage change compared to vehicle control: -16%
  APD30 (average raw data): 129
  APD30 percentage change compared to vehicle control: -4%
  APD50 (average raw data): 169
  APD50 percentage change compared to vehicle control: -7%
  APD90 (average raw data): 269
  APD90 percentage change compared to vehicle control: 3%
  Alternans (average raw data): 30.91
  Alternans percentage change compared to vehicle control: 2347%
  EADs percentage change compared to vehicle control: 0%
  ERP (average raw data): 0.37
  ERP percentage change compared to vehicle control: -13%
  Max Dispersion (average raw data): 59.90
  Max Dispersion percentage change compared to vehicle control: 741%
  RMP (average raw data): -88
  RMP percentage change compared to vehicle control: 0%
  Refractoriness Escape percentage change compared to vehicle control: 0%
  STV (average raw data): 21.80
  STV percentage change compared to vehicle control: 2766%
  Triangulation (average raw data): 139
  Triangulation percentage change compared to vehicle control: 11%
  Beat Escape (raw data): 4
  EADs (raw data): 0
  Refractoriness Escape (raw data): 0
2Hz, 73-FOLD free ETPC (4.1µM)
  AMAX (average raw data): 43
  AMAX percentage change compared to vehicle control: -60%
  APD30 (average raw data): 82
  APD30 percentage change compared to vehicle control: -30%
  APD50 (average raw data): 118
  APD50 percentage change compared to vehicle control: -30%
  APD90 (average raw data): 234
  APD90 percentage change compared to vehicle control: -3%
  Alternans (average raw data): 21.46
  Alternans percentage change compared to vehicle control: 1598%
  EADs percentage change compared to vehicle control: 0%
  ERP (average raw data): 0.45
  ERP percentage change compared to vehicle control: 5%
  Max Dispersion (average raw data): 35.75
  Max Dispersion percentage change compared to vehicle control: 402%
  RMP (average raw data): -68
  RMP percentage change compared to vehicle control: -19%
  Refractoriness Escape percentage change compared to vehicle control: 0%
  STV (average raw data): 15.46
  Triangulation (average raw data): 152
  Triangulation percentage change compared to vehicle control: 25%
  Beat Escape (raw data): 2
  EADs (raw data): 0
  Refractoriness Escape (raw data): 0
